# Experimental data: US20220170028A1, “NOVEL INTERLEUKIN-2 VARIANTS AND BIFUNCTIONAL FUSION MOLECULES THEREOF” (Cugene Inc, priority 2019, published 2022)
# Entries after “also recorded” stand apart in the source; their conditions may differ.
# Key:
# [1] = tested on: CD8+ T cells; assay: Ki67 expression on CD8+ T cells, human PBMC, flow cytometry; assay type: cell-based
# From the text: (§1) Exemplary IL-2 variant Fc fusion protein P-0573 was further characterized for induction of Ki-67 expression by flow cytometry.
# [2] = tested on: NK cells; assay: Ki67 expression on NK cells, human PBMC, flow cytometry; assay type: cell-based
# From the text: as §1
# [3] = tested on: Treg cells; assay: Treg proliferation and expansion in mice after a single s.c. injection of bifunctional constructs (Example 17); assay type: in vivo, mouse; settings: 15 nmol/kg single s.c.; for potency in inducing Treg cell proliferation and expansion in vivo (in words): C57/BL6 mice
# Experimental: (§2) IL-2 variant tocilizumab bifunctional proteins P-0536, P-0546, P-0559, and P-0560 along with IL-2 variant Fc fusion protein P-0511 were administered to mice, and their ability to preferentially proliferate and expand regulatory T cells (CD4+CD25+FoxP3+ T cells) over effector T cells and NK cells were determined in vivo.
# (§3) Female C57/BL6 mice (7-week old) were received from Charles River Laboratory and acclimated in house for at least 7 days before the study. Vehicle (PBS) and 15 nmol/kg each test compounds were subcutaneously administered to mice on day 0. Peripheral blood samples were collected into heparin-treated tubes on days 2, 4 and 8 post-treatment. Each group contained 5 mice and baseline blood was collected 3 days prior to the treatment (day −3).
# [4] = tested on: CD4+ Treg vs CD4+ Tconv cells; assay: STAT5 phosphorylation, selectivity / activity profile Treg versus CD4+ Tconv cells, human PBMC; assay type: cell-based
# Summary of the method: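 Fresh human PBMC from a healthy donor, serum-starved 1 h at 4 °C, then exposed to serial dilutions of IL-2 variants for 30 min at 37 °C. After fixation/permeabilization, cells stained for CD4, CD25, FOXP3 and pSTAT5 and analysed by flow cytometry. Treg (CD4+/Foxp3+/CD25high) and Tconv (CD4+/Foxp3−/CD25low) gated; read-out is percent pSTAT5-positive cells.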
# [5] = tested on: CD4+ Tconv, activated CD4+ T, CD8+ T and NK cells; assay: Effector T cell and NK cell proliferation and expansion in mice, bifunctional constructs (Example 17); assay type: in vivo, mouse; settings: 15 nmol/kg single s.c.
# Experimental: as §2, §3
# [6] = tested on: CD8+ T cells; assay: CD8+ T cell proliferation, CFSE dilution, human PBMC; assay type: cell-based; settings: 5 or 7 days incubation
# Experimental: (§4) Further, P-0511 and P-0512 were tested for their ability to stimulate NK and CD8+ T cells proliferation in comparison with the wild type and benchmark molecules. Intracellular fluorescent label carboxyfluorescein diacetate succinimidyl ester (CFSE) method was utilized. Briefly, human PBMC (1×10^5 cells/well) were labeled with CFSE, plated onto 96-well plates, and incubated with increasing concentrations of different IL-2 compounds. Cells were then harvested after 5 or 7 days of incubation and stained with either anti-CD56-APC antibody for NK cells or anti-CD8-APC antibody for CD8+ T cells; and analyzed by flow cytometry. Data are expressed as a percent of divided cells and illustrated in FIG. 10A for CD8+ T cell proliferation and FIG. 10B for NK cell proliferation.
# [7] = tested on: Treg cells; assay: Treg proliferation and expansion in mice after a single subcutaneous injection (Example 9); assay type: in vivo, mouse; settings: 0.3 mg/kg single s.c., C57/BL6 mice
# Experimental: (§5) IL-2 variant Fc fusion proteins were administered to mice and their ability to preferentially proliferate and expand regulatory T cells (CD4+CD25+FoxP3+ T cells) over effector T cells and NK cells were determined in vivo.
# (§6) Female C57/BL6 mice (7-week old) were received from Charles River Laboratory and acclimated in house for at least 7 days before the study. Vehicle (PBS), 0.3 mg/kg of each test compounds, or IL-2 benchmark compounds were subcutaneously administered to mice on day 0. Peripheral blood samples were collected into heparin-treated tubes on days 3, 5 and 7 post-treatment. Each group contained 6 mice and baseline blood was collected 2 days prior to the treatment (day −2). After red blood cell lysis, total viable mononuclear blood cells were counted by trypan blue dead cell exclusion method and proceeded to intracellular staining for immune cell phenotype and Ki67 proliferation markers using flow cytometric analysis. Cells were stained separately with two panels of antibodies as listed: 1) anti-mouse Foxp3-FITC, Ki67-PE, anti-mouse CD25-APC and anti-mouse CD4-Percpcy5.5 (1:50 dilution) for CD4+T-regulatory cells (Treg); 2) anti-mouse CD3-FITC, Ki67-PE, anti-mouse CD335-APC and anti-mouse CD8-Percpcy5.5 (1:50 dilution) for CD8+T and NK cells.
# [8] = tested on: Treg cells; assay: Treg pharmacodynamics in mice after repeated administration Q3D (Example 11); assay type: in vivo, mouse; settings: 0.3 mg/kg s.c.
# Experimental: Female Balb/C mice (7-week old) were acclimated in house for 5-7 days before the study. Vehicle (PBS), 0.3 mg/kg of P-0511, P-0512, P-0531, or Benchmark-1 compound were subcutaneously administered to mice (n=5/group) on days 0, 3, and 6. On days 3 and 9, three days after the first injection and multiple (3) injections, respectively, peripheral blood was collected. Based on earlier in vivo experiments, Treg cell activation, proliferation, and expansion were expected to peak on day 3, and thus three days post injection was selected for data collection and analysis. Changes in blood lymphocyte activation, proliferation, and expansion were measured by flow cytometry. P-0531 is the S125I equivalent of the wild type IL-2 fusion protein. The Benchmark-1 contains V91K mutation.
# [9] = tested on: NK cells; assay: NK cell proliferation, CFSE dilution, human PBMC; assay type: cell-based; settings: 5 or 7 days incubation
# Experimental: as §4
# [10] = tested on: CD4+ Tconv cells, CD8 T cells and NK cells; assay: Effector T cell and NK cell proliferation and expansion in mice after a single subcutaneous injection (Example 9); assay type: in vivo, mouse; settings: 0.3 mg/kg single s.c., C57/BL6 mice
# Experimental: as §5, §6
# [11] = tested on: CD4+/Foxp3+/CD25+ Treg, CD4+/Foxp3-/CD25+ Teff and CD4+/Foxp3-/CD25- naive T cells; assay: STAT5 phosphorylation in three CD4+ T cell subsets (Treg, CD4 effector, CD4 naive), human PBMC; assay type: cell-based
# From the text: In addition to being assessed for their ability to differentially stimulate Stat5 phosphorylation in CD4 positive Treg (CD4+/Foxp3+/CD25^high) versus Tconv (CD4+/Foxp3−/CD25^low) cells, two variants, P-0511 and P-0512, were further assayed for their ability to stimulate other effector T and NK cells, including CD4 positive Teff (CD4+/Foxp3-/CD25+), CD8 cytotoxic T effector and NK cells in comparison to wild-type IL-2 (P-0250) and three IL-2 benchmark molecules containing V91K, N88R, N88D respectively.
# After human PBMC Cells were treated with serial dilutions of test compounds, fixed and permeabilized, washed, and stained with a mixture of anti-CD25-PE, anti-FOXP3-APC, anti-pSTAT5-FITC, and anti-CD4-PerCP-Cy5.5 antibodies, the flow cytometry analysis was gated into CD4+/Foxp3+/CD25+, CD4+/Foxp3−/CD25+, CD4+/Foxp3−/CD25− groups for the Treg, CD4 effector, and CD4 naive T cell subsets, respectively. Data are expressed as a percent of pStat5 positive cells in gated population and illustrated in FIG. 9.
# [12] = tested on: CD4+ T cells; assay: Ki67 expression on CD4+ T cells, human PBMC, flow cytometry; assay type: cell-based
# From the text: as §1
Substance,induction of Ki67 expression in CD8+ T cells [1],induction of Ki67 expression in NK cells [2],"Treg/Tconv ratio (Ki67 stimulation, cell counts) [3]",expression of CD25 and Foxp3 on Treg cells [3],potency in inducing Treg cell proliferation and expansion in vivo (in words) [3],change of the activated CD4+ T cells [5],further results
"Benchmark-4: benchmark Fc-IL-2 fusion with IL-2Rα-disrupting triple mutations F42A/Y45A/L72G, SEQ ID NO: 250 [reference compound]",equally effective,equally effective,–,–,–,–,–
"P-0560: Tocilizumab IL-2 D20Q/S125I monovalent fusion, SEQ ID NOs 253 + 254 + 266",–,–,most beneficial Treg/Tconv ratio,highest expression of CD25,highest potency,slight increase,activity profile / selectivity window Treg over CD4+ Tconv (in words) [4]: selective activation of Treg cells over CD4+ Tconv cells
"P-0512: IL-2 L19H/S125I/Q126K Fc fusion, SEQ ID NO: 214",–,–,–,–,–,–,"potency in stimulating CD8+ T cell proliferation (in words) [6]: comparable activity profile to Benchmark-1; Treg/Tconv ratio (Ki67 stimulation and cell counts) ([7]; all measured time points): most beneficial Treg/Tconv ratio; stimulation of Treg cell proliferation and expansion in vivo (in words) ([7]; days 3, 5, 7): stronger in vivo efficacy; % Treg over total CD4 T cells or over total lymphocytes ([8]; after three consecutive Q3D treatments): sustained at significantly high levels; Treg cell counts, fold changes relative to PBS and Treg/Tconv ratio ([8]; repeated dosing Q3D): superior capabilities to sustain Treg pool and maintain Treg selectivity; Treg Selectivity ([4]; Isoleucine-125 constructs): Yes; potency in stimulating NK cell proliferation (in words) [9]: comparable activity profile to Benchmark-1; Ki67 stimulation on CD8 T cells and NK cells in vivo (in words) [10]: mild Ki67 stimulation; expansion of CD4+ Tconv cells, CD8 T cells or NK cells in vivo [10]: No significant expansion; pSTAT5 activity profile in Treg, Teff and naive CD4 T cell subsets (in words) [11]: comparable activity profile to Benchmark-1"
"P-0573: IL-2 R38A/P65G/S125I Fc fusion, SEQ ID NO: 247",equally effective,equally effective,–,–,–,–,induction of Ki67 expression in CD4+ T cells [12]: substantially reduced potency; also recorded: higher potency than Benchmark-4
"P-0546: Tocilizumab IL-2 L19H/S125I/Q126E monovalent fusion, SEQ ID NOs 253 + 254 + 256",–,–,most beneficial Treg/Tconv ratio,highest expression of CD25,highest potency,slight increase,–
